How the values were obtained:
RAW 264.7 cells = assay: Whole cell inhibition assay for NO (nitrite) output; format: cell-based, murine; details: for no2/no3 % suppression of induced production: γIFN+LPS, 18 hours
Protocol: RAW 264.7 cells are plated in microculture wells at 1×10^6/ml in RPMI 1640 with 10% FBS and otherwise standard culture conditions and allowed to adhere for 5 hours. They are then activated with 25 U/ml γIFN and 0.1 μg/ml LPS in the presence of test inhibitors. The urea concentration present in the supernatant media, after 18 hours of culture, is determined by a colorimetric blood urea nitrogen diacetylmonoxime assay performed on an aliquot of the culture supernatant (Sigma Chem. Co., St. Louis, Mo.) and inhibition is expressed as the percentage urea compared to that of a parallel control culture treated identically except that the concentration of added inhibitor is zero.
The production of nitrite is determined by assay of the same tissue culture supernatant by means of a calorimetric assay. Briefly, 4 parts of test solution containing 1% (w/v) sulfanilamide, 0.1% naphthylethylenediamine di-HCl (Griess Reagent), 2.5% H3PO4 and one part media are mixed, incubated for 10 minutes and the absorbance at 560 nm determined. The nitrite concentrations are interpolated from reference curves prepared using NaNO2.
Various concentrations of the test compounds are included in the media of the stimulated RAW 264.7 cells in culture. The concentration of urea and/or nitrite after 18 hours of activated culture is determined and compared to the uninhibited control value obtained from at least one parallel culture. The fractional reduction is calculated for each concentration of inhibitor and the IC50 (concentration giving 50% reduction) is interpolated. Compounds were dissolved in media with mild heat (60° C.). Those with limited solubility were dissolved in base. The concentration of stock solutions of those compounds which were not completely soluble was determined by OD280.
This section describes experiments that measure the concentration of Compound No. 14 needed to inhibit arginine uptake and NO output. The techniques employed were described in section 7.1 supra.

Lewis rats = assay: Focal cerebral infarction (middle cerebral artery severing); format: in vivo; details: 1 mg/Kg i.v. one hour before artery severed; 24 hours; p<0.05 vs controls
Protocol: Lewis rats (male, 270-300 g) were given food and water ad libi tum before and after surgery. Animals were anesthetized with ketamine (120 mg/Kg i.m.), allowed to breathe spontaneously, and body temperature maintained at 35.5-36.5° C. with a heating blanket. The ventral neck and area between the right eye and ear was shaved. A midline ventral cervical incision was used to expose the left common carotid artery (CCA) which was dissected free from surrounding tissue with preservation of the vagus nerve. A loop of 4-0 silk was then placed around the artery for future manipulation. The right common carotid artery was then exposed and permanently occluded with double 4-0 silk ligatures. […]
Twenty-four hours after MCA severing, animals were anesthetized and decapitated and the brains were quickly removed without perfusion and coronally sectioned at 1 mm intervals with a brain slicer for analysis. […] Slices were then placed in buffered 10% formalin and infarct area determined by planimetry on projected images of photographed brain slices. Infarct size for an individual animal was calculated by summing the infarct area present on each brain slice and dividing by the sum of hemisphere area for all slices for that animal (expressed as a percentage of hemisphere area for each slice). Animals were studied in groups of 10, and the data expressed as average stroke volume for the group.

TNF = assay: Serum TNF levels after parenteral LPS; format: in vivo, rats; details: i.p. 2.0 hours prior to LPS; measured 2-3 hours after LPS
Protocol: Qualitatively similar data has been obtained by measurement of the serum TNF levels in rats stimulated to produce TNF by parenteral LPS administration. Rats were given Compound No. 14, i.p., 2.0 hours prior to LPS stimulation. The serum levels of TNF were measured at between 2 and 3 hours after LPS stimulation.

CHO-TNF tumor = CHO-TNF tumor growth in nude mice; format: in vivo; details: 0.4 mg/Kg i.p. once daily, two weeks
Protocol: This section describes in detail the methods and results of an animal model of tumor growth to determine the ability of the compounds of the invention to inhibit tumor growth, and cause regression of tumors. Cells are plated in standard tissue culture flasks in DMEM supplemented with fetal calf serum (10%). Chinese hamster ovary (CHO) cells stably transfected with a mammalian expression vector constitutively secrete human TNF (CHO-TNF). The experiments with the CHO-TNF tumor were performed as follows: on the day of injection into nude mice, cells are harvested and injected intramuscularly (10-15×10^6 cells per animal) into the hindlimb of nu/nu nude mice (20 g body weight). Animals are housed and provided food and water ad libitum. Tumor growth is monitored, and when established tumors are present (during week six) the test compounds are administered daily (0.4 mg/Kg intraperitoneal, once daily). After two weeks the animals are euthanized, the tumor weighed, and measured with a caliper. The CHO-TNF tumor also metastasizes to the skin of these animals; the number of metastases is scored.

## CC(=NNC(=N)N)c1cc(NC(=O)CCCCCCCCC(=O)Nc2cc(C(C)=NNC(=N)N)cc(C(C)=NNC(=N)N)c2)cc(C(C)=NNC(=N)N)c1.Cl.Cl.Cl.Cl [Compound 14, N,N′-bis(3,5-diacetyl-phenyl)decanediamide tetrakis(amidinohydrazone) tetrahydrochloride]
RAW 264.7 cells; dose 2 μM
  no2/no3 % suppression of induced production: 0%
RAW 264.7 cells; dose 10 μM
  no2/no3 % suppression of induced production: 69%
RAW 264.7 cells; dose 50 μM
  no2/no3 % suppression of induced production: 100%
RAW 264.7 cells; dose 200 μM
  no2/no3 % suppression of induced production: 100%
RAW 264.7 cells; exposed from 8 hours after stimulation, NO output during hours 12-24, mean±std. err., n=3, read-out: I.C.50 for NO output
  IC50: 20 ± 2 µM
Lewis rats
  mean infarct (stroke) size, percentage of hemisphere area: 1.7%±0.2%
TNF
  serum TNF level vs untreated controls: about half the level of serum TNF
CHO-TNF tumor
  # of METASTASES (skin): not present
  reduction in tumor size (animals responding): reduction in tumor size in four out of five animals
CHO-TNF tumor; listed as No. 14
  # of METASTASES (skin): 0
CHO-TNF tumor; n = 4
  TUMOR DIMENSION: 207.99 ± 119.90 mm^2
  TUMOR WEIGHT: 1.628 ± 1.07 g

— patent US20020028851A1, “Guanylhydrazones and their use to treat inflammatory conditions” (priority 1994, published 2002)
